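Test compounds were applied to cells in 96-well plates for 48 hours at 5 doses. GI50: concentration for 50% inhibition of growth.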 Active and inactive are the calls of the source. Rule as the data show it: active = GI50 up to about 1.1 µM and inactive = higher.
Assays:
Test in all cases: NCI tumour cell line growth inhibition, 48 h
[1] = tested on: HT-29
[2] = tested on: TK-10
[3] = tested on: SNB-75
[4] = tested on: HOP-92
[5] = tested on: MDA-MB-435
[6] = tested on: NCI/ADR-RES
[7] = tested on: OVCAR-3
[8] = tested on: UO-31
[9] = tested on: U-251
[10] = tested on: SK-MEL-28
[11] = tested on: MDA-MB-231
[12] = tested on: EKVX
[13] = tested on: Malme-3M
[14] = tested on: NCI-H226
[15] = tested on: BT-549
[16] = tested on: 786-0
[17] = tested on: A498
[18] = tested on: HCT-15
[19] = tested on: A549
[20] = tested on: ACHN
[21] = tested on: M14
[22] = tested on: OVCAR-5
[23] = tested on: PC-3
[24] = tested on: SK-OV-3
[25] = tested on: LOX IMVI
[26] = tested on: UACC-62
[27] = tested on: HCT-116
[28] = tested on: SR
[29] = tested on: NCI-H522
[30] = tested on: NCI-H23
[31] = tested on: T47D
[32] = tested on: Hs-578T
[33] = tested on: SF-539
[34] = tested on: HCC 2998
[35] = tested on: CAKI-1
[36] = tested on: CCRF-CEM
[37] = tested on: IGROV-1
[38] = tested on: SNB-19
[39] = tested on: HOP-62
[40] = tested on: K562
[41] = tested on: SK-MEL-5
[42] = tested on: DU-145
[43] = tested on: SW-620
[44] = tested on: HL-60
[45] = tested on: KM12
[46] = tested on: COLO 205
[47] = tested on: OVCAR-4
[48] = tested on: RXF 393
[49] = tested on: MOLT-4
[50] = tested on: OVCAR-8
[51] = tested on: RPMI-8226
[52] = tested on: SF-268
[53] = tested on: SN12C
[54] = tested on: MDA-N
[55] = tested on: UACC-257
[56] = tested on: SF-295
[57] = tested on: MCF7
[58] = tested on: SK-MEL-2
[59] = tested on: NCI-H460

Measured: GI50

Cc1cc2c(cc1C)C(=O)c1ncccc1C2=O
26.5 µM: [18]
inactive: [1] 23.3 µM | [2] > 100 µM | [3] 54.5 µM | [4] 58.6 µM | [5] 16.8 µM | [6] 22.8 µM | [7] 3.06 µM | [8] 37.3 µM | [9] 35.7 µM | [10] 50.5 µM | [11] 22.6 µM | [12] 17.4 µM | [13] 7.85 µM | [14] 40.1 µM | [15] 40.9 µM | [16] 28.5 µM | [17] 50.2 µM | [19] 22.7 µM | [20] 37.2 µM | [21] 23.6 µM | [22] 21.1 µM | [23] 29 µM | [24] 87.9 µM | [25] 29.4 µM | [26] 30.3 µM | [27] 19.9 µM | [29] 16.7 µM | [30] 15.6 µM | [31] 34.8 µM | [32] > 100 µM | [33] 26.5 µM | [34] 33.4 µM | [35] 36.6 µM | [36] 30.4 µM | [37] 31.2 µM | [38] 34.8 µM | [39] 71.3 µM | [40] 17.5 µM | [41] 7 µM | [42] 24.2 µM | [43] 30.9 µM | [44] 11.2 µM | [45] 31.5 µM | [46] 18.3 µM | [47] 21.9 µM | [48] 33.2 µM | [49] 20.4 µM | [50] 31.9 µM | [51] 29.9 µM | [52] 49.3 µM | [53] 22.6 µM | [54] 18.7 µM | [55] 18.7 µM | [56] 41.8 µM | [57] 20.2 µM | [58] 48.5 µM | [59] 7.91 µM
active: [28] < 0.01 µM

— ChEMBL document CHEMBL1201862, “PubChem BioAssay data set” (2004)
